Data reported in the NIST ThermoML archive (doi:10.1021/acs.jced.6b00210).
± gives the expanded uncertainty stated by the source.

Test: xn = mol fraction of the nth substance listed
Conditions: 100 kPa, Liquid; for viscosity: Concentric cylinders viscometry; for mass density: Vibrating tube method

Nc1ccccc1 [aniline] + CCC(C)O
Conditions	mass density [kg/m3]	viscosity [mPa·s]
293.15 K, x1 = 0.0813	825 ± 0.2	3.32 ± 0.4
293.15 K, x1 = 0.16	842.5 ± 0.2	3.07 ± 0.37
293.15 K, x1 = 0.24	860.1 ± 0.2	2.88 ± 0.35
293.15 K, x1 = 0.3502	884.2 ± 0.3	2.71 ± 0.33
293.15 K, x1 = 0.44	903.7 ± 0.3	2.66 ± 0.32
293.15 K, x1 = 0.5601	929.6 ± 0.3	2.72 ± 0.33
293.15 K, x1 = 0.65	948.8 ± 0.3	2.81 ± 0.34
293.15 K, x1 = 0.74	967.8 ± 0.3	3 ± 0.36
293.15 K, x1 = 0.8499	990.8 ± 0.3	3.4 ± 0.41
293.15 K, x1 = 0.94	1009.4 ± 0.3	3.89 ± 0.47
293.15 K, x1 = 1	1021.7 ± 0.3	4.37 ± 0.53
298.15 K, x1 = 0.0813	820.7 ± 0.2	2.77 ± 0.33
298.15 K, x1 = 0.16	838.1 ± 0.2	2.55 ± 0.31
298.15 K, x1 = 0.24	855.7 ± 0.2	2.39 ± 0.29
298.15 K, x1 = 0.3502	879.7 ± 0.3	2.25 ± 0.27
298.15 K, x1 = 0.44	899.2 ± 0.3	2.21 ± 0.27
298.15 K, x1 = 0.5601	924.9 ± 0.3	2.24 ± 0.27
298.15 K, x1 = 0.65	944.1 ± 0.3	2.33 ± 0.28
298.15 K, x1 = 0.74	963.1 ± 0.3	2.52 ± 0.3
298.15 K, x1 = 0.8499	986.2 ± 0.3	2.92 ± 0.35
298.15 K, x1 = 0.94	1004.9 ± 0.3	3.38 ± 0.41
298.15 K, x1 = 1	1017.4 ± 0.3	3.8 ± 0.46
303.15 K, x1 = 0.0813	816.3 ± 0.2	2.3 ± 0.28
303.15 K, x1 = 0.16	833.6 ± 0.2	2.12 ± 0.26
303.15 K, x1 = 0.24	851.1 ± 0.2	1.97 ± 0.24
303.15 K, x1 = 0.3502	875.1 ± 0.3	1.83 ± 0.22
303.15 K, x1 = 0.44	894.5 ± 0.3	1.78 ± 0.21
303.15 K, x1 = 0.5601	920.4 ± 0.3	1.77 ± 0.21
303.15 K, x1 = 0.65	939.6 ± 0.3	1.83 ± 0.22
303.15 K, x1 = 0.74	958.6 ± 0.3	1.97 ± 0.24
303.15 K, x1 = 0.8499	981.8 ± 0.3	2.32 ± 0.28
303.15 K, x1 = 0.94	1000.6 ± 0.3	2.77 ± 0.33
303.15 K, x1 = 1	1013.2 ± 0.3	3.13 ± 0.38
308.15 K, x1 = 0.0813	811.9 ± 0.2	1.94 ± 0.23
308.15 K, x1 = 0.16	829.1 ± 0.2	1.81 ± 0.22
308.15 K, x1 = 0.24	846.6 ± 0.3	1.69 ± 0.2
308.15 K, x1 = 0.3502	870.5 ± 0.3	1.56 ± 0.19
308.15 K, x1 = 0.44	890 ± 0.3	1.51 ± 0.18
308.15 K, x1 = 0.5601	915.8 ± 0.3	1.5 ± 0.18
308.15 K, x1 = 0.65	935 ± 1	1.55 ± 0.19
308.15 K, x1 = 0.74	954.2 ± 0.3	1.69 ± 0.2
308.15 K, x1 = 0.8499	977.4 ± 0.3	2.01 ± 0.24
308.15 K, x1 = 0.94	996.4 ± 0.3	2.43 ± 0.29
308.15 K, x1 = 1	1009 ± 0.3	2.75 ± 0.33
313.15 K, x1 = 0.0813	807.5 ± 0.2	1.65 ± 0.2
313.15 K, x1 = 0.16	824.7 ± 0.3	1.52 ± 0.18
313.15 K, x1 = 0.24	842.1 ± 0.3	1.416 ± 0.17
313.15 K, x1 = 0.3502	865.9 ± 0.3	1.33 ± 0.16
313.15 K, x1 = 0.44	885.3 ± 0.3	1.29 ± 0.16
313.15 K, x1 = 0.5601	911.2 ± 0.3	1.3 ± 0.16
313.15 K, x1 = 0.65	930.5 ± 0.3	1.35 ± 0.16
313.15 K, x1 = 0.74	949.6 ± 0.3	1.49 ± 0.18
313.15 K, x1 = 0.8499	973 ± 0.3	1.78 ± 0.21
313.15 K, x1 = 0.94	992 ± 0.3	2.14 ± 0.26
313.15 K, x1 = 1	1004.7 ± 0.3	2.43 ± 0.29
318.15 K, x1 = 0.0813	802.9 ± 0.3	1.42 ± 0.17
318.15 K, x1 = 0.16	820 ± 0.3	1.31 ± 0.16
318.15 K, x1 = 0.24	837.3 ± 0.3	1.21 ± 0.15
318.15 K, x1 = 0.3502	861.1 ± 0.3	1.13 ± 0.14
318.15 K, x1 = 0.44	880.5 ± 0.3	1.11 ± 0.13
318.15 K, x1 = 0.5601	906.4 ± 0.3	1.13 ± 0.14
318.15 K, x1 = 0.65	925.7 ± 0.3	1.19 ± 0.14
318.15 K, x1 = 0.74	945 ± 0.3	1.31 ± 0.16
318.15 K, x1 = 0.8499	968.5 ± 0.3	1.58 ± 0.19
318.15 K, x1 = 0.94	987.6 ± 0.3	1.9 ± 0.23
318.15 K, x1 = 1	1000.4 ± 0.3	2.14 ± 0.26
323.15 K, x1 = 0.0813	798.2 ± 0.3	1.24 ± 0.15
323.15 K, x1 = 0.16	815.2 ± 0.3	1.15 ± 0.14
323.15 K, x1 = 0.24	832.5 ± 0.3	1.07 ± 0.13
323.15 K, x1 = 0.3502	856.2 ± 0.3	1 ± 0.12
323.15 K, x1 = 0.44	875.5 ± 0.3	0.99 ± 0.12
323.15 K, x1 = 0.5601	901.3 ± 0.3	1.014 ± 0.12
323.15 K, x1 = 0.65	920.7 ± 0.3	1.075 ± 0.13
323.15 K, x1 = 0.74	940 ± 0.3	1.189 ± 0.14
323.15 K, x1 = 0.8499	963.5 ± 0.3	1.46 ± 0.18
323.15 K, x1 = 0.94	982.7 ± 0.3	1.75 ± 0.21
323.15 K, x1 = 1	995.5 ± 0.3	1.96 ± 0.24

Nc1ccccc1 [aniline] + CCCC(C)O
Conditions	mass density [kg/m3]	viscosity [mPa·s]
293.15 K, x1 = 0.0811	824.5 ± 0.2	3.55 ± 0.43
293.15 K, x1 = 0.1599	839.5 ± 0.2	3.23 ± 0.39
293.15 K, x1 = 0.2399	855 ± 0.2	3 ± 0.36
293.15 K, x1 = 0.35	877 ± 0.3	2.8 ± 0.3
293.15 K, x1 = 0.44	895.5 ± 0.3	2.71 ± 0.33
293.15 K, x1 = 0.56	920.8 ± 0.3	2.67 ± 0.32
293.15 K, x1 = 0.65	940.4 ± 0.3	2.72 ± 0.33
293.15 K, x1 = 0.74	960.5 ± 0.3	2.86 ± 0.34
293.15 K, x1 = 0.8499	985.8 ± 0.3	3.26 ± 0.39
293.15 K, x1 = 0.9363	1006.3 ± 0.3	3.79 ± 0.46
293.15 K, x1 = 1	1021.7 ± 0.3	4.37 ± 0.53
298.15 K, x1 = 0.0811	820.3 ± 0.2	3.03 ± 0.36
298.15 K, x1 = 0.1599	835.3 ± 0.2	2.74 ± 0.33
298.15 K, x1 = 0.2399	850.8 ± 0.2	2.53 ± 0.3
298.15 K, x1 = 0.35	872.7 ± 0.3	2.35 ± 0.28
298.15 K, x1 = 0.44	891.1 ± 0.3	2.28 ± 0.27
298.15 K, x1 = 0.56	916.4 ± 0.3	2.28 ± 0.27
298.15 K, x1 = 0.65	935.9 ± 0.3	2.34 ± 0.28
298.15 K, x1 = 0.74	956 ± 1	2.49 ± 0.3
298.15 K, x1 = 0.8499	981.4 ± 0.3	2.87 ± 0.35
298.15 K, x1 = 0.9363	1001.9 ± 0.3	3.31 ± 0.4
298.15 K, x1 = 1	1017.4 ± 0.3	3.8 ± 0.46
303.15 K, x1 = 0.0811	816.1 ± 0.2	2.61 ± 0.31
303.15 K, x1 = 0.1599	831 ± 0.2	2.34 ± 0.28
303.15 K, x1 = 0.2399	846.5 ± 0.2	2.12 ± 0.26
303.15 K, x1 = 0.35	868.3 ± 0.3	1.93 ± 0.23
303.15 K, x1 = 0.44	886.7 ± 0.3	1.86 ± 0.22
303.15 K, x1 = 0.56	912 ± 1	1.83 ± 0.22
303.15 K, x1 = 0.65	931.6 ± 0.3	1.87 ± 0.23
303.15 K, x1 = 0.74	951.7 ± 0.3	2.01 ± 0.24
303.15 K, x1 = 0.8499	977 ± 0.3	2.36 ± 0.28
303.15 K, x1 = 0.9363	997.6 ± 0.3	2.74 ± 0.33
303.15 K, x1 = 1	1013.2 ± 0.3	3.13 ± 0.38
308.15 K, x1 = 0.0811	811.8 ± 0.2	2.22 ± 0.27
308.15 K, x1 = 0.1599	826.7 ± 0.2	1.98 ± 0.24
308.15 K, x1 = 0.2399	842.1 ± 0.3	1.8 ± 0.22
308.15 K, x1 = 0.35	863.9 ± 0.3	1.65 ± 0.2
308.15 K, x1 = 0.44	882.3 ± 0.3	1.58 ± 0.19
308.15 K, x1 = 0.56	907.6 ± 0.3	1.562 ± 0.19
308.15 K, x1 = 0.65	927.1 ± 0.3	1.64 ± 0.2
308.15 K, x1 = 0.74	947.2 ± 0.3	1.78 ± 0.21
308.15 K, x1 = 0.8499	972.7 ± 0.3	2.09 ± 0.25
308.15 K, x1 = 0.9363	993.3 ± 0.3	2.44 ± 0.29
308.15 K, x1 = 1	1009 ± 0.3	2.75 ± 0.33
313.15 K, x1 = 0.0811	807.5 ± 0.2	1.84 ± 0.22
313.15 K, x1 = 0.1599	822.3 ± 0.2	1.64 ± 0.2
313.15 K, x1 = 0.2399	837.6 ± 0.3	1.5 ± 0.18
313.15 K, x1 = 0.35	859.4 ± 0.3	1.39 ± 0.17
313.15 K, x1 = 0.44	877.8 ± 0.3	1.359 ± 0.16
313.15 K, x1 = 0.56	903 ± 0.3	1.38 ± 0.17
313.15 K, x1 = 0.65	922.6 ± 0.3	1.46 ± 0.18
313.15 K, x1 = 0.74	942.8 ± 0.3	1.61 ± 0.19
313.15 K, x1 = 0.8499	968.2 ± 0.3	1.89 ± 0.23
313.15 K, x1 = 0.9363	989 ± 0.3	2.18 ± 0.26
313.15 K, x1 = 1	1004.7 ± 0.3	2.43 ± 0.29
318.15 K, x1 = 0.0811	803.1 ± 0.2	1.48 ± 0.18
318.15 K, x1 = 0.1599	817.9 ± 0.3	1.34 ± 0.16
318.15 K, x1 = 0.2399	833.2 ± 0.3	1.257 ± 0.15
318.15 K, x1 = 0.35	854.9 ± 0.3	1.18 ± 0.14
318.15 K, x1 = 0.44	873.3 ± 0.3	1.16 ± 0.14
318.15 K, x1 = 0.56	898.6 ± 0.3	1.21 ± 0.15
318.15 K, x1 = 0.65	918.1 ± 0.3	1.29 ± 0.16
318.15 K, x1 = 0.74	938.3 ± 0.3	1.44 ± 0.17
318.15 K, x1 = 0.8499	963.8 ± 0.3	1.7 ± 0.2
318.15 K, x1 = 0.9363	984.6 ± 0.3	1.93 ± 0.23
318.15 K, x1 = 1	1000.4 ± 0.3	2.14 ± 0.26
323.15 K, x1 = 0.0811	798.7 ± 0.2	1.19 ± 0.14
323.15 K, x1 = 0.1599	813.3 ± 0.3	1.11 ± 0.13
323.15 K, x1 = 0.2399	828.6 ± 0.3	1.06 ± 0.13
323.15 K, x1 = 0.35	850.2 ± 0.3	1.03 ± 0.12
323.15 K, x1 = 0.44	868.5 ± 0.3	1.03 ± 0.12
323.15 K, x1 = 0.56	893.7 ± 0.3	1.08 ± 0.13
323.15 K, x1 = 0.65	913.3 ± 0.3	1.17 ± 0.14
323.15 K, x1 = 0.74	933.4 ± 0.3	1.31 ± 0.16
323.15 K, x1 = 0.8499	958.9 ± 0.3	1.54 ± 0.19
323.15 K, x1 = 0.9363	979.7 ± 0.3	1.77 ± 0.21
323.15 K, x1 = 1	995.5 ± 0.3	1.96 ± 0.24
